# Experimental data from US8871683B2, “Dicamba herbicide composition” (Nufarm Australia Limited, priority 2008, dated 2014).
# Experiment: Low temperature (cold storage) stability testing, CIPAC Method 39.3 (1999)
# Type: physicochemical
# Conditions: for cold temperature stability at 0° C.: 750 g/L Dicamba (based on acid equivalent); for cold storage / low temperature stability at 0° C.: Dicamba 800 g/L acid equivalent
# Description: Compositions described in the Examples were examined by the CIPAC Method 39.3 (1999) the procedure of which is noted below.
# Transfer 100±1.0 ml of the formulation to the tube and insert the stopper. Cool to 0±2° C. in the refrigerator (Note 2). If the sample contains a dissolved crystalline pesticide, remove the tube from the refrigerator after 24 hours, take off the stopper, add a small crystal of the pure or technical pesticide (Note 3) and replace the stopper. Replace the tube in the refrigerator and allow it to remain at 0±2° C. for a total period of 7 days (Note 4).
# At the end of this time, note the volume and nature of any separated material. If the liquid phase is not homogeneous, note the volume of each layer. If there is any separated material, then allow the tube to reach room temperature over a period of 24 hours (Note 5), invert once and again note the volume and nature of any separated material. • Note 1 A domestic refrigerator is often unsuitable because the on/off cycle may cover a range larger than 4° C. • Note 2 Alternatively a graduated emulsion tube meeting BS 658 class B, type 1 (Crow Receiver) may be used. • Note 3 A crystal from the commercial manufacturing process is preferred. Alternatively a crystal separated from the formulation e.g. by distillation of the solvent may be used. • Note 4 Other temperature-storage period combinations may be specified. • Note 5 Room temperature being defined as 23±2° C. Note any temperature outside this range.
# Low temperature stability testing was carried out in accordance with the Standard CIPAC Method 39.3 (1999) and the resulting percentage crystallisation is reported in Table 3.
SMILES,cold temperature stability at 0° C.,cold storage / low temperature stability at 0° C.
CNC.COc1c(Cl)ccc(Cl)c1C(=O)O [DMA salt],not stable,Neither of the individual DMA or MMA salts were stable
CN.COc1c(Cl)ccc(Cl)c1C(=O)O [MMA salt],not stable,Neither of the individual DMA or MMA salts were stable
